Results as given in patent publication US20050234113A1, “Antioxidant and radical scavenging activity of synthetic analogs of desferrithiocin” (University of Florida Research Foundation, Inc., priority 2002, published 2005).
Where “and” joins values, the source holds several entries; their conditions need not be identical. Identical values can stand only once.

Test system: iron
Test: Iron clearance in the iron-overloaded Cebus apella monkey
Assay type: in vivo
Details: 300 μmol/kg sc, as sodium salt
Protocol: The monkeys were iron overloaded with intravenous iron dextran to provide about 500 mg iron per kg body weight. The serum transferrin iron saturation rose to between 70 and 80%. At least twenty half-lives, sixty days, elapsed before any of the animals were used in experiments evaluating iron-chelating agents.
Fecal and urine samples were collected at 24 hour intervals and processed. Briefly, the collections began 4 days prior to the administration of the test drug and continued for an additional 5 days after the drug was given. Iron concentrations were determined by flame atomic absorption spectroscopy.
The iron chelators were solubilized in 40% Cremophor RH-40/water (v/v) and given orally and subcutaneously to the rats at the doses shown in Table 4. In the primates, DFO was dissolved in sterile H2O at a concentration of 50 or 100 mg/mL and given orally or subcutaneously at a volume of 1 ml/kg. The desferrithiocin analogues were solubilized in 40% Cremophor RH-40/water (v/v) and given orally to the monkeys at the doses shown in Table 4. However, the desferrithiocin analogues were administered subcutaneously as either a suspension in distilled H2O or as their sodium salts in solution as indicated in Table 4.
Iron clearance studies were carried out both in the non iron-overloaded, bile duct-cannulated rodent model and in the iron-overloaded Cebus apella monkey, and the results are reported as iron clearing efficiency (Table 4). This number is generated by dividing the net iron clearance [total iron excretion (bile or stool plus urine) minus background] by the theoretical iron clearance and multiplying by 100. The theoretical iron clearance is based on a 2:1 metal complex stoichiometry for 4′-(HO)-DADMDFT, a 1:1 stoichiometry for DFO, and a 1:1 stoichiometry for BDU, as shown in the Job's plot (FIG. 5). Data are presented as the mean±the standard error of the mean. The drugs were administered both orally (po) and subcutaneously (sc) to the rodents and primates; the positive control was DFO.

## O=C(O)[C@H]1CSC(c2ccc(O)cc2O)=N1 [4′-(HO)-DADMDFT, 4′-hydroxydesazadesmethyldesferrithiocin]
  % stool (of iron excreted), monkeys: 75%
  % urine (of iron excreted), monkeys: 25%
  efficiency in monkeys (%): 5.3±1.7% and 5.3 ± 1.7^g %
